# Measured values from ChEMBL document CHEMBL1201862, “PubChem BioAssay data set” (2004).
# Active and inactive are the calls of the source.
# What was measured:
# [1] = molecular target: Peroxisome proliferator-activated receptor gamma/Nuclear receptor coactivator 1 (Homo sapiens, UniProt P37231); assay: (§1) TR-FRET dose response biochemical High Throughput Screening assay for agonists of the steroid receptor coactivator 1 (SRC-1) recruitment by the peroxisome proliferator-activated receptor gamma (PPAR gamma): non-selective agonists. [Related pubchem assays (depositor defined):AID1300, AID1808, AID504735, AID631]; format: protein assay
# [2] = molecular target: Peroxisome proliferator-activated receptor gamma/Nuclear receptor coactivator 3 (Homo sapiens, UniProt P37231); assay: as §1, with “3 (SRC-3)” for “1 (SRC-1)”, “assays: 1301 (Confirmation screen.), 1048 (Primary screen.)]” for “assays (depositor defined):AID1300, AID1808, AID504735, AID631]”; format: functional
# [3] = molecular target: Peroxisome proliferator-activated receptor gamma/Nuclear receptor coactivator 2 (Homo sapiens, UniProt P37231); assay: TR-FRET dose response biochemical High Throughput Screening assay for agonists of the steroid receptor coactivator 2 (SRC-2) recruitment by the peroxisome proliferator-activated receptor gamma (PPAR gamma): non-selective agonists. [Related pubchem assays: 1297, 1032 ]; format: functional
# Hexokinase HKDC1 = molecular target: T1, Hexokinase HKDC1 (Homo sapiens, UniProt Q2TB90); assay: HKDC1 hexokinase activators, dose response, biochemical, W721R variant (AID 504730); format: functional
# T1 sequence (Q2TB90 whole entry): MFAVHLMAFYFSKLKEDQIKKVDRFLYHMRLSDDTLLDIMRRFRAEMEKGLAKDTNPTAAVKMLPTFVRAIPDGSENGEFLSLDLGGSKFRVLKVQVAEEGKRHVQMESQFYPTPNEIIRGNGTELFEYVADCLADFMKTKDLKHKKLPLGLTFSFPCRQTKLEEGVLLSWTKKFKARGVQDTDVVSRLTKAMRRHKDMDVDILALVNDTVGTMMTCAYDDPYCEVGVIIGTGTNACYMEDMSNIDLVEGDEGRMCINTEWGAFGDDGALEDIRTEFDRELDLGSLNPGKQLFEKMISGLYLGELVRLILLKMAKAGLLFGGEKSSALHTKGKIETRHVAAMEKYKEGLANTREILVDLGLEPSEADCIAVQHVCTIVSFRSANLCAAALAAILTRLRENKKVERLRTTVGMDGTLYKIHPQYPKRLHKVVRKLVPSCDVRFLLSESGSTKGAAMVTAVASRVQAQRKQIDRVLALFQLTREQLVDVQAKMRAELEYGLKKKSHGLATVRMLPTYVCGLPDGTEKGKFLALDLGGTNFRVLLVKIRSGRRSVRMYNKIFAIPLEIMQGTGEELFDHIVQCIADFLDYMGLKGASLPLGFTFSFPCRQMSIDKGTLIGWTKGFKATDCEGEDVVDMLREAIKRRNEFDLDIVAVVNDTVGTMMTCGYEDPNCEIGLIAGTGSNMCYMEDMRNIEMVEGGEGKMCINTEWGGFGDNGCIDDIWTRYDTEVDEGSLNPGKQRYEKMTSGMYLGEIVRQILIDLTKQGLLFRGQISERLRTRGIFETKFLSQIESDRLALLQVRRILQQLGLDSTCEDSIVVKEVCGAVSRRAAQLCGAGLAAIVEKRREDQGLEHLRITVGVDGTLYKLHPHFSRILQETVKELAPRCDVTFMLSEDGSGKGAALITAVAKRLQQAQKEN
# Hexokinase-1 = molecular target: T2, Hexokinase-1 (Homo sapiens, UniProt P19367); assay: hexokinase 1 activators, dose response, selectivity assay for HKDC1 activator project, biochemical (AID 504762); format: functional
# T2 sequence (P19367 whole entry): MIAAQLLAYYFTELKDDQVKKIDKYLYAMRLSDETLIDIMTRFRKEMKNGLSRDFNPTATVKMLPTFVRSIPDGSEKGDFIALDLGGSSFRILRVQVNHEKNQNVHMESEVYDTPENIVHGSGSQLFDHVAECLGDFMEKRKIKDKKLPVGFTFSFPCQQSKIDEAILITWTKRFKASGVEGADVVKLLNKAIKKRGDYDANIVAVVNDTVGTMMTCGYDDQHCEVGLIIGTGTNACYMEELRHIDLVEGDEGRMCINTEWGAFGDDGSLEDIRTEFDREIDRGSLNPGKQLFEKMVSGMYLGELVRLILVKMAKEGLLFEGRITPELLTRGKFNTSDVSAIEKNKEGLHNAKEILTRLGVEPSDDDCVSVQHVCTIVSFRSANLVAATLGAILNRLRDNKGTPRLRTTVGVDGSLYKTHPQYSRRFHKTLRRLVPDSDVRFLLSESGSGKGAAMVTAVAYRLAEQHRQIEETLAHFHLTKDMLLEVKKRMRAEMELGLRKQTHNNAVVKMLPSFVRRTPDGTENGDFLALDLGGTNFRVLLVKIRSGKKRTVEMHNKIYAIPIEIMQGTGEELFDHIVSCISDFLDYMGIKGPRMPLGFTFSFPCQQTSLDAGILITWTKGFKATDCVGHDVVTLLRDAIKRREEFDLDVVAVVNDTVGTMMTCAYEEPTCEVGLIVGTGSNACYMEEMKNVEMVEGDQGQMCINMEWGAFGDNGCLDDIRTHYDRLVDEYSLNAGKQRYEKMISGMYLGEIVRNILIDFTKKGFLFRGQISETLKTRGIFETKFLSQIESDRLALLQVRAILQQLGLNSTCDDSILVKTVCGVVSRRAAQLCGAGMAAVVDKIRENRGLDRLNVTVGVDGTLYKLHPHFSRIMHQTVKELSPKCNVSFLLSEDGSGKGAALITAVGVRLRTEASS
# [4] = Counterscreen for IDE inhibitors: Luminescence-based cell-based high throughput dose response assay to identify compounds that are cytotoxic to HEK cells. [Related pubchem assays: 434962 (Primary screen (IDE inhibitors in singlicate)), 449730 (Counterscreen (Cytotoxicity in triplicate)), 435028 (Confirmation (IDE inhibitors in triplicate)) …; format: functional; conditions: HEK293
# Insulin-degrading enzyme = molecular target: T3, Insulin-degrading enzyme (Homo sapiens, UniProt P14735); assay: Dose Response: Fluorescence polarization-based cell-based high throughput dose response assay for inhibitors of insulin-degrading enzyme (IDE). [Related pubchem assays: 434962 (Primary screen (IDE inhibitors in singlicate)), 449730 (Counterscreen (Cytotoxicity in triplicate)), 435028 (Confirmation (IDE inhibitors in triplicate)), 434984 (Summary …; format: functional
# T3 sequence (P14735 whole entry): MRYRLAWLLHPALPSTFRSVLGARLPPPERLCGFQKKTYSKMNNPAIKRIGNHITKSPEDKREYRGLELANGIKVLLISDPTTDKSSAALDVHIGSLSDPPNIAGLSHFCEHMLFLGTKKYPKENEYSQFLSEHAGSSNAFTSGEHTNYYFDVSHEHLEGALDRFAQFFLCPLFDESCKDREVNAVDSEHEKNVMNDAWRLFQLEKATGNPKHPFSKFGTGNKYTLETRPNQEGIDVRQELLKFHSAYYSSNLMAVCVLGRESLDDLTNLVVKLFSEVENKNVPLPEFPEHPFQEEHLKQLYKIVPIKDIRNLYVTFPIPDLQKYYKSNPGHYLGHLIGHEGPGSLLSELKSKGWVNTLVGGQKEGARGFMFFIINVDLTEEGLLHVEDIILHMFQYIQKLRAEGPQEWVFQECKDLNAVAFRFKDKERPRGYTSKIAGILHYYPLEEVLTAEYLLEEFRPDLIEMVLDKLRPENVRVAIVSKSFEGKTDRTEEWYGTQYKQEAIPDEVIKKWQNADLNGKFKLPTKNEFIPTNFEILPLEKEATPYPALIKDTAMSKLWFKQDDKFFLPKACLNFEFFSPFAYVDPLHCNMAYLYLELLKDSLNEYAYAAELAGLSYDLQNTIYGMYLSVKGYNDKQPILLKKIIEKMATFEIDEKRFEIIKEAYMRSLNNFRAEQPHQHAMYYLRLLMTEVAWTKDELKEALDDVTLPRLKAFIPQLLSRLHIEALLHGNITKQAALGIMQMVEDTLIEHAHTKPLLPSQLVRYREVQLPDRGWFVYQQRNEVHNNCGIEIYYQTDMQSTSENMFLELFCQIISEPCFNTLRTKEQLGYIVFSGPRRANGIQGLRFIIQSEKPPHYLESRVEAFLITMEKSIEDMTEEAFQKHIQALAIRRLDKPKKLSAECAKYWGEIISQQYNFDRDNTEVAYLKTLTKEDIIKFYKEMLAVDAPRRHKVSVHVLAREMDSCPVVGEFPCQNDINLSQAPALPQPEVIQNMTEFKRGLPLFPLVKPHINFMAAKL
# [5] = molecular target: Intestinal-type alkaline phosphatase (Homo sapiens, UniProt P09923); assay: activation of human intestinal alkaline phosphatase – biochemical, dose response (AID 488873); format: functional
# [6] = molecular target: Intestinal-type alkaline phosphatase (Mus musculus, UniProt P24822); assay: mouse intestinal alkaline phosphatase activators, dose response, biochemical, luminescence, uHTS hits (AID 488783); format: functional
# [7] = molecular target: T4, Alkaline phosphatase, tissue-nonspecific isozyme (Homo sapiens, UniProt P05186); assay: TNAP enzyme activators, dose response, selectivity assay for mouse IAP activator project, biochemical, TNAP isozyme, mouse IAP uHTS hits (AID 488880); format: functional
# T4 sequence (P05186 whole entry): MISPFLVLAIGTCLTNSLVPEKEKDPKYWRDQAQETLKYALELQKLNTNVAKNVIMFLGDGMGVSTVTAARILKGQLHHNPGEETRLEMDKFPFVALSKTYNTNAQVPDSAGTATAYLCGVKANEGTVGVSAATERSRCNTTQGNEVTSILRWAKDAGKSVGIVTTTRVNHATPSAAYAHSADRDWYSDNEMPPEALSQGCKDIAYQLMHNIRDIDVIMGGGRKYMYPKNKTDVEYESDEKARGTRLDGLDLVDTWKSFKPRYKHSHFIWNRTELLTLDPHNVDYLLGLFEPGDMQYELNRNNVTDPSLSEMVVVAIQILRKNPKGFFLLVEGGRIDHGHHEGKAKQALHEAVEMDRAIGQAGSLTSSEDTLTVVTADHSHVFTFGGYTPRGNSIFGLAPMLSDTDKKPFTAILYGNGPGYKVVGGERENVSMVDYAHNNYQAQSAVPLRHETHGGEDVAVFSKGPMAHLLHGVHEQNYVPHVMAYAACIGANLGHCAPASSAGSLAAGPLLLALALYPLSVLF
# [8] = molecular target: Dual specificity tyrosine-phosphorylation-regulated kinase 1A (Rattus norvegicus, UniProt Q63470); format: biochemical, Homo sapiens
# Nonstructural protein 1 = Nonstructural protein 1 (Influenza A virus, UniProt Q194T2); format: functional, Influenza A virus (A/California/07/2009(H1N1))
# [9] = molecular target: Heat shock protein HSP 90-alpha (Homo sapiens, UniProt P07900); format: functional, organism-based
# Paired box protein Pax-8 = Paired box protein Pax-8 (Homo sapiens, UniProt Q06710); assay: inhibitors of PAX8-driven TPO luciferase reporter, dose response, RMG-I cells, cherry-pick (AID 687027); format: functional, cell-based;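 note: luciferase reporter driven by Pax8 target thyroperoxidase promoter measured by SteadyGlo luminescence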
# Chain of Paired box protein Pax-8 (Q06710 whole entry): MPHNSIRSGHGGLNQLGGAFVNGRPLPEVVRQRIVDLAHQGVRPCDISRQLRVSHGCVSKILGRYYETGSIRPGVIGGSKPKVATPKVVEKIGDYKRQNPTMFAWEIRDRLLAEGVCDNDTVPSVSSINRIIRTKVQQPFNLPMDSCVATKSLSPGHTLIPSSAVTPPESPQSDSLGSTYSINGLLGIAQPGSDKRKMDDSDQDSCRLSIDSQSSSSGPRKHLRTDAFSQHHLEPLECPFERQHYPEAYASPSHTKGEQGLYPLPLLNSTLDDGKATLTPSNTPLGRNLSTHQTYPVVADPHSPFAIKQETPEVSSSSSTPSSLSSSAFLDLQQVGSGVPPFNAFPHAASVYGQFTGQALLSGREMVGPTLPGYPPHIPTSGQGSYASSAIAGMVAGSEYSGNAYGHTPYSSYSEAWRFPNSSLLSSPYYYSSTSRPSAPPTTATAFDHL
# Chain of Peroxisome proliferator-activated receptor gamma/Nuclear receptor coactivator 1 (P37231 whole entry): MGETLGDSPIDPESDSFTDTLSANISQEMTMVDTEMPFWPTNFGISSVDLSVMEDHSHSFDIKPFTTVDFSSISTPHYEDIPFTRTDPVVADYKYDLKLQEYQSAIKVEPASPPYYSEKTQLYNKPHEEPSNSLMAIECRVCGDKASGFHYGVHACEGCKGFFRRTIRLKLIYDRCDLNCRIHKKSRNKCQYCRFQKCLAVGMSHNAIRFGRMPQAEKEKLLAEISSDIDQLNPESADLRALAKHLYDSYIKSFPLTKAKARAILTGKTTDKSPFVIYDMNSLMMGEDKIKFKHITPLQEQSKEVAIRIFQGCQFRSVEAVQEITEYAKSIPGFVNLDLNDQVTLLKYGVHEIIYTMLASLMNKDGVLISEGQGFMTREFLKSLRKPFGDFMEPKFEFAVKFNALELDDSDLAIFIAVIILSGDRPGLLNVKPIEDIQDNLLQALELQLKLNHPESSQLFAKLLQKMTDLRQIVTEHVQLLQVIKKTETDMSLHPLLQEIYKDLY
# Chain of Peroxisome proliferator-activated receptor gamma/Nuclear receptor coactivator 1 (Q15788 whole entry, further chain): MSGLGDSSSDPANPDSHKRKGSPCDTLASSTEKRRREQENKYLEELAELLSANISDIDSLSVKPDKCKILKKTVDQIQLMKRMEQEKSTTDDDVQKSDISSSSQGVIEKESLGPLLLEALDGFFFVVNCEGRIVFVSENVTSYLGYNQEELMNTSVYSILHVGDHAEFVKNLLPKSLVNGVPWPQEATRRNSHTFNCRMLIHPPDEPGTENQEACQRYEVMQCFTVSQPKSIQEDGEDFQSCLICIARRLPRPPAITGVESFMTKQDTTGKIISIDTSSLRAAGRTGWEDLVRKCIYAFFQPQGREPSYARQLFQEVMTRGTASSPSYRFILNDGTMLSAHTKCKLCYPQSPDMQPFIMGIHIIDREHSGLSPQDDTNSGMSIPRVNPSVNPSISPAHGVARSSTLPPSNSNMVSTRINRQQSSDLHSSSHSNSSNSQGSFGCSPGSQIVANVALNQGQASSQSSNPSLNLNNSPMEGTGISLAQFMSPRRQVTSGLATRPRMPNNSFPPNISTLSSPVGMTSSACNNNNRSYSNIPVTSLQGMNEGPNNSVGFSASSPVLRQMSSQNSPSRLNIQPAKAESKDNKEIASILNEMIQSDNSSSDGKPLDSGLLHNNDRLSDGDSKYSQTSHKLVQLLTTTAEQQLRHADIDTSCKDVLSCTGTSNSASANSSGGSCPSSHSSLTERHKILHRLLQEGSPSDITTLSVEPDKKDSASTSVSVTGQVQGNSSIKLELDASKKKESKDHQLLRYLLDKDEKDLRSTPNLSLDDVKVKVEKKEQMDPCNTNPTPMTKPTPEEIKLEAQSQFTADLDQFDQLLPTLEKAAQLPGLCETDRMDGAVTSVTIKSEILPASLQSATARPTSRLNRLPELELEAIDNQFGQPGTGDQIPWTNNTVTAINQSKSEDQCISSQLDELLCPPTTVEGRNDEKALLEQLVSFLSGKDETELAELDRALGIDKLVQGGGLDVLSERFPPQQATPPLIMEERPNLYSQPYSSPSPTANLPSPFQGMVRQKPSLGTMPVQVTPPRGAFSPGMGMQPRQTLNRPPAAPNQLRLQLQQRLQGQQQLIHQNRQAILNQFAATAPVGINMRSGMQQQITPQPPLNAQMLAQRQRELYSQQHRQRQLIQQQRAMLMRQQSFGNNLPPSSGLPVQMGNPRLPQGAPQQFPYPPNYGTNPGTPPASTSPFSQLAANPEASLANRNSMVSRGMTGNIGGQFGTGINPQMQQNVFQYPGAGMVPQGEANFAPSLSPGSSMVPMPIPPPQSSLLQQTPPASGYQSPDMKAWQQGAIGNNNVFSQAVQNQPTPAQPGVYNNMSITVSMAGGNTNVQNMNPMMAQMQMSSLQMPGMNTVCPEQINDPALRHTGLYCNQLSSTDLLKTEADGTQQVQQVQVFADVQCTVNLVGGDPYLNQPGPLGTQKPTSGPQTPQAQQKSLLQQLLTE
# Chain of Peroxisome proliferator-activated receptor gamma/Nuclear receptor coactivator 3 (P37231 whole entry): as the sequence (P37231 whole entry) above
# Chain of Peroxisome proliferator-activated receptor gamma/Nuclear receptor coactivator 3 (Q9Y6Q9 whole entry, further chain): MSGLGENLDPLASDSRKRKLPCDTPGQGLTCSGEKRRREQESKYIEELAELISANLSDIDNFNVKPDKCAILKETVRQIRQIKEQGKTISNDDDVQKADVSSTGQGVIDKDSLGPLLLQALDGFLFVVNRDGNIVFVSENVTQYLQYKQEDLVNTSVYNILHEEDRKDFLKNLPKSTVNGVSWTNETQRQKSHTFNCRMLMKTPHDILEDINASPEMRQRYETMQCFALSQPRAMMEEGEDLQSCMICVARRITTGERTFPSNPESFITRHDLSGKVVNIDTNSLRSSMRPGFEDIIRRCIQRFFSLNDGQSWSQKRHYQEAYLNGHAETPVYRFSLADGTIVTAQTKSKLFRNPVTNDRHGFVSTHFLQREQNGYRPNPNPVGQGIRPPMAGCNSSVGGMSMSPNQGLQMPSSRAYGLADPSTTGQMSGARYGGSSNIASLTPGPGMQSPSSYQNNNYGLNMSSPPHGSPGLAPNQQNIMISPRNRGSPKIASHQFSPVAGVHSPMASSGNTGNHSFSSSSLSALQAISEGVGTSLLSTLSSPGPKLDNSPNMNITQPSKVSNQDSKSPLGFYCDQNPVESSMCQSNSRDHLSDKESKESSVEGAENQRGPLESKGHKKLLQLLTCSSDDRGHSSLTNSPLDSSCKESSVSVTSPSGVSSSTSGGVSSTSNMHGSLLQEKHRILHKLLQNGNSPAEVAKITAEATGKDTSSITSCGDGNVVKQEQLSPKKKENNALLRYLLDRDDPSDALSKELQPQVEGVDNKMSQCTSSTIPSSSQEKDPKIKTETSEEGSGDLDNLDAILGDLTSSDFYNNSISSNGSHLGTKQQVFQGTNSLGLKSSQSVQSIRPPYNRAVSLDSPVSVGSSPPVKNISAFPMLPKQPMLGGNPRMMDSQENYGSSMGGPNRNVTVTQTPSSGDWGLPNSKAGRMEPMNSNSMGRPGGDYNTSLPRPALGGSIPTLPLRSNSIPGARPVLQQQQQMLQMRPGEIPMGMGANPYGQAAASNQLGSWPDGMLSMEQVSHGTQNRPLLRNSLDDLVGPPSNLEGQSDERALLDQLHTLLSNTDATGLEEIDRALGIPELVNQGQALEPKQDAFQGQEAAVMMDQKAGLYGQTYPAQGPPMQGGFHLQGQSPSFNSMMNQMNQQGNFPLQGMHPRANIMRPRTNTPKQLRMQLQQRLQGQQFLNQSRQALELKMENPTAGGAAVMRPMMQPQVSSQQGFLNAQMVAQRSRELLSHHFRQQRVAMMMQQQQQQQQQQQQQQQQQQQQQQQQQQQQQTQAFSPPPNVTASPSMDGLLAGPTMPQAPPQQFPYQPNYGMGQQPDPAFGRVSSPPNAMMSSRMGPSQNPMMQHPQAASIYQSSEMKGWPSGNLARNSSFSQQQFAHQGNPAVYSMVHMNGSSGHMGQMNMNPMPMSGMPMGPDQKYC
# Chain of Intestinal-type alkaline phosphatase (Mus musculus, UniProt P24822) (P24822 whole entry): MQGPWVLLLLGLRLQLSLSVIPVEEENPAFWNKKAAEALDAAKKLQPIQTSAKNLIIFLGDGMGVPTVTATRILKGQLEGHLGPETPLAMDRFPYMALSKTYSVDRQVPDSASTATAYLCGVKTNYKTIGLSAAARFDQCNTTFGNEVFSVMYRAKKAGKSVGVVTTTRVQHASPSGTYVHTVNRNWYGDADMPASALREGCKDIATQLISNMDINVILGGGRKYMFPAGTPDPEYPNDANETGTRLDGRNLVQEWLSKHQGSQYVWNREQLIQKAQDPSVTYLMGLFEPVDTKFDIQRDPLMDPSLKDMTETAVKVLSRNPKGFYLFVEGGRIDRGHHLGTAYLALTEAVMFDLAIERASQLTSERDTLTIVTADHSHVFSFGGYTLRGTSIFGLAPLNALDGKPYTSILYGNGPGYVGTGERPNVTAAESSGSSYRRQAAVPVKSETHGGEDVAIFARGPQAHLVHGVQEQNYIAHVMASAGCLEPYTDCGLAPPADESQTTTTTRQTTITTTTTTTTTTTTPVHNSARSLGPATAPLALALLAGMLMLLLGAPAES
Compound,EC50 [1],EC50 [2],EC50 [3],EC50 (Hexokinase HKDC1),EC50 (Hexokinase-1),also measured
Fc1cccc(CSc2ncnc3c2oc2ccccc23)c1,24.2 µM (inactive),85.8 µM (not active),14.3 µM (not active),,,
Cc1ccc2oc(=O)c3cnn(CC(=O)N4CCc5ccccc5C4)c3c2c1,,,,16 µM (active),36.7 µM (inactive),
CSC1=NSC2=NC(=O)/C(=C/c3coc4ccc(O)cc4c3=O)C(=N)N12,,,,,,IC50 [4]: > 55.7 µM (not active); IC50 (Insulin-degrading enzyme): > 6.21 µM (active); EC50 [5]: 24.9 µM (active); EC50 [6]: 20.8 µM (active); EC50 [7]: 30.2 µM (active); AC50 [8]: 7.62 µM (active)
O=C(CSc1ccccc1)Nc1ccc(C(=O)Nc2ccc(O)cc2)cc1,9.68 µM (active),58.3 µM (not active),8.24 µM (active),,,
CC(=NNC(=S)N1CCN(C2CCCCCC2)CC1)c1ccccn1,,,,8.14 µM (active),> 80 µM (inactive),IC50 (Nonstructural protein 1): 1.66 µM (active); AC50 [9]: 3.35 µM (active); AC50 (Paired box protein Pax-8): < 260 nM (active)
